Assay results: article PMC11233931, “Remodeling tumor‐associated macrophage for anti‐cancer effects by rational design of irreversible inhibition of mitogen‐activated protein kinase‐activated protein kinase 2” (MedComm, 2024)

How the values were obtained:
Assay in all cases: Eurofins kinase selectivity profile against 380 other human recombinant kinases (Table S2)
Format in all cases: biochemical
[1] = biological target: T1, 380 human recombinant protein kinases (Homo sapiens, UniProt P51957); details: NEK4(h), read-out: Inhibition rate
T1 construct: purchased Eurofins (Celle Lévescault)
Procedure, shortened: (§1)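 Values come from a contract kinase-profiling service that tested the compound at multiple concentrations across 380 recombinant human kinases, as an off-target check against the MK2 activity.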

[2] = biological target: T2, 380 human recombinant protein kinases (Homo sapiens, UniProt Q96J92); details: WNK4(h), read-out: Inhibition rate (%)
T2 construct: purchased Eurofins (Celle Lévescault)
Procedure, shortened: as §1

[3] = biological target: T3, 380 human recombinant protein kinases (Homo sapiens, UniProt Q9NWZ3); details: IRAK4(h), read-out: Inhibition rate
T3 construct: purchased Eurofins (Celle Lévescault)
T3 sequence (Q9NWZ3 1-460): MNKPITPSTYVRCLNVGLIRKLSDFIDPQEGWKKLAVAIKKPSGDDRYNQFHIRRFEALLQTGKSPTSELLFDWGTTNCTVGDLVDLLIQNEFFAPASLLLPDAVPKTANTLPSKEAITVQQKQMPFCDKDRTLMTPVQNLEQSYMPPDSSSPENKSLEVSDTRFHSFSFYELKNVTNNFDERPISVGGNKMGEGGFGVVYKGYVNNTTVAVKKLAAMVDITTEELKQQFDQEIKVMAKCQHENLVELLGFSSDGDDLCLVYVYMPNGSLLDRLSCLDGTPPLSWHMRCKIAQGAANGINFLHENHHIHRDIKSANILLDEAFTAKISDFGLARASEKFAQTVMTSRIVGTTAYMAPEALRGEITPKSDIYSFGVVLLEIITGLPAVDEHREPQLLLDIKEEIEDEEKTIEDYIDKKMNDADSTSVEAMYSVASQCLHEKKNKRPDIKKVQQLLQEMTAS
Procedure, shortened: as §1

[4] = biological target: T4, 380 human recombinant protein kinases (Homo sapiens, UniProt Q9UEE5); details: DRAK1(h), read-out: Inhibition rate
T4 construct: purchased Eurofins (Celle Lévescault)
T4 sequence (Q9UEE5 1-414): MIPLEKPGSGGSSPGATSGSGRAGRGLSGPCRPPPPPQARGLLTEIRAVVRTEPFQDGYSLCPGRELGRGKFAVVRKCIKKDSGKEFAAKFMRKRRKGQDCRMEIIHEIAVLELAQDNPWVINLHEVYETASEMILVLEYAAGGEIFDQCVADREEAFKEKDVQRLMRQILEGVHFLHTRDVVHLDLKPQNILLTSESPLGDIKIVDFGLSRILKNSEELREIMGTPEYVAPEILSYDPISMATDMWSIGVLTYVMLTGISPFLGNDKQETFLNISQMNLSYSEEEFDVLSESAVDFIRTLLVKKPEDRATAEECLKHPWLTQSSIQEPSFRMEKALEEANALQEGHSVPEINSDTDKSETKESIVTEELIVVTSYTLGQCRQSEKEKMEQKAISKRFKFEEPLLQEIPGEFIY
Procedure, shortened: as §1

[5] = biological target: T5, 380 human recombinant protein kinases (Homo sapiens, UniProt Q9Y2U5); details: MEKK2(h), read-out: Inhibition rate
T5 construct: purchased Eurofins (Celle Lévescault)
T5 sequence (Q9Y2U5 1-619): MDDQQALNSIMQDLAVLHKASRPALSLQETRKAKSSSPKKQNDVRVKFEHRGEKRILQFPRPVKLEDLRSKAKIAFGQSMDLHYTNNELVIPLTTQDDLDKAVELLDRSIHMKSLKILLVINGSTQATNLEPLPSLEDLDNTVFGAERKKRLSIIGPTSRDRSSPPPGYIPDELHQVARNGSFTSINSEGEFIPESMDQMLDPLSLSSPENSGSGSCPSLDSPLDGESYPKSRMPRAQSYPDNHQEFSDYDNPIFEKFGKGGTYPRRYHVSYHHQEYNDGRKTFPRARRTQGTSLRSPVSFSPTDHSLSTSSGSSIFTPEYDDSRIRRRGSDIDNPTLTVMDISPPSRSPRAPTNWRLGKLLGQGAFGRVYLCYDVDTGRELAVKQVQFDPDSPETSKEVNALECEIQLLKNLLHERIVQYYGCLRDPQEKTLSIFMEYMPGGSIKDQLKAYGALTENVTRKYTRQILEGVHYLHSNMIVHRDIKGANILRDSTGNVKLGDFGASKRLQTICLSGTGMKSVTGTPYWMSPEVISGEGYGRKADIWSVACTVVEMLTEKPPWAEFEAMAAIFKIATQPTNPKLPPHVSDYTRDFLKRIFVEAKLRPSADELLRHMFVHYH
Procedure, shortened: as §1

[6] = tested on: 380 human recombinant protein kinases
Procedure, shortened: as §1

T1 sequence (P51957 whole entry): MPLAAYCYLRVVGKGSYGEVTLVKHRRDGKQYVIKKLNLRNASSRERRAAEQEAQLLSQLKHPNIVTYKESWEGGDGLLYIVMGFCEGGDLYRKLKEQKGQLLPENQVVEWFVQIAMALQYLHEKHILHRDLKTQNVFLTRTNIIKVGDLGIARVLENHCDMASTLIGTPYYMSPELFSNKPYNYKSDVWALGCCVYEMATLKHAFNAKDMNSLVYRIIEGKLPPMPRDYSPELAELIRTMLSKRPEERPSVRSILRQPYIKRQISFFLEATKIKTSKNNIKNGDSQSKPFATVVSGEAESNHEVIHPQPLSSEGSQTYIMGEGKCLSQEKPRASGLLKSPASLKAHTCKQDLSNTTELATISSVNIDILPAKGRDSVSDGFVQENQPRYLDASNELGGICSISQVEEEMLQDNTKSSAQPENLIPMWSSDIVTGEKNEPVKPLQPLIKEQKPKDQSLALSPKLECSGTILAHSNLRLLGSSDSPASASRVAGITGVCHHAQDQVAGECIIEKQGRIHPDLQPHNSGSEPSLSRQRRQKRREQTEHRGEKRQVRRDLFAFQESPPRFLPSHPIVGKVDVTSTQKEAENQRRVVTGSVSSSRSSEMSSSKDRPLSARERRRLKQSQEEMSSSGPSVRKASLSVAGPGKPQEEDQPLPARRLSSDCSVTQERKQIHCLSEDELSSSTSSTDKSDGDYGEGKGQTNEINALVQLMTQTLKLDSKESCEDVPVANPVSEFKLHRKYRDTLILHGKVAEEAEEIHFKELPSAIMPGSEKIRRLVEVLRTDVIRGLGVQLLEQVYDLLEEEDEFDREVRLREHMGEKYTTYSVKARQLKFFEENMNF
T2 sequence (Q96J92 whole entry): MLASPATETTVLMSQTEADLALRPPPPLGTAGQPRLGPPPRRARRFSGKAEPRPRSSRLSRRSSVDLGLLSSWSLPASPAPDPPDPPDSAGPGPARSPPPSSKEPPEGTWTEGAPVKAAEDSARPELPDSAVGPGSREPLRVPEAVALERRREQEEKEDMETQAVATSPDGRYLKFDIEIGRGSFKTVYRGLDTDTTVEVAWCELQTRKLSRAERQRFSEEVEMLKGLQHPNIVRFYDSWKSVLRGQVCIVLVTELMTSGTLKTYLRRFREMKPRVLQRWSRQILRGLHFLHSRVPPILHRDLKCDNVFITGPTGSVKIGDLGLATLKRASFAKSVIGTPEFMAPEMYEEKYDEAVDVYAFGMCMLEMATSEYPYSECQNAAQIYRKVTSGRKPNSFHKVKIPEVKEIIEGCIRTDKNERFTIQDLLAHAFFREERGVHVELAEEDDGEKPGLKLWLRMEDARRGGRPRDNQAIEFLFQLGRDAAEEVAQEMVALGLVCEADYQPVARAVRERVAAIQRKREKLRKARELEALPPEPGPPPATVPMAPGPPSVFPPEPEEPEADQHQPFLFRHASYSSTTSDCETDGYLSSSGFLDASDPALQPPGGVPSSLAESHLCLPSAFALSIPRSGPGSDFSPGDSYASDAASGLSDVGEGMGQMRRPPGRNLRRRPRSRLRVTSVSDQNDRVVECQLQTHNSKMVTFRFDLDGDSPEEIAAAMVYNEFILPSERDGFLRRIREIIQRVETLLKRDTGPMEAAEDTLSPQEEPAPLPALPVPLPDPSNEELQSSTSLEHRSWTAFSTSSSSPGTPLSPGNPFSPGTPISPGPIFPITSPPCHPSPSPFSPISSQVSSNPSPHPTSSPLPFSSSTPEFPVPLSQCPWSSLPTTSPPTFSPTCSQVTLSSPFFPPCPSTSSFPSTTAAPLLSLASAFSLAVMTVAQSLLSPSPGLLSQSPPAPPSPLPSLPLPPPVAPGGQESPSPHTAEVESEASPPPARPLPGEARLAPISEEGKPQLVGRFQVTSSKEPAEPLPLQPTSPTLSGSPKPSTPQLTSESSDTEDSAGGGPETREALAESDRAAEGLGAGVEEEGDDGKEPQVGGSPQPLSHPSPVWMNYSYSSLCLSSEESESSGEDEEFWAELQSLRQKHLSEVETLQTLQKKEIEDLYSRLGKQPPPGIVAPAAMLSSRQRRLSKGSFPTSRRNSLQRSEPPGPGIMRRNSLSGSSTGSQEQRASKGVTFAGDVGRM

`C=CC(=O)Nc1cc(-c2cc(-c3cc4c([nH]3)CCNC4=O)ccn2)ccc1OC(F)(F)F` [compound 11] was tested, and the inhibition at 0.01 µM ([1]; 10 nM) was -2%, the inhibition at 0.1 µM ([1]; 100 nM) was 5% and the inhibition at 1 µM ([1]; 1000 nM) was 34%. The inhibition at 0.01 µM ([2]; 10 nM) was 6%, the inhibition at 0.1 µM ([2]; 100 nM) was 6% and the inhibition at 1 µM ([2]; 1000 nM) was 3%. For the same compound, the inhibition at 0.01 µM ([3]; 10 nM) was -4%, the inhibition at 0.1 µM ([3]; 100 nM) was -9% and the inhibition at 1 µM ([3]; 1000 nM) was -2%. The inhibition at 0.01 µM ([4]; 10 nM) was 13%, the inhibition at 0.1 µM ([4]; 100 nM) was 41% and the inhibition at 1 µM ([4]; 1000 nM) was 82%. For the same compound, the inhibition at 0.01 µM ([5]; 10 nM) was -3%, the inhibition at 0.1 µM ([5]; 100 nM) was 2% and the inhibition at 1 µM ([5]; 1000 nM) was -2%. For the same compound, the “inhibitory rate on the other 380 kinases tested” value ([6]; 10 nM, all 380 kinases) was “less than 50%”, the “selectivity for MK2 over the other tested kinases” value ([6]; 91.8% of total tested kinases) was “more than 434 fold” and the Inhibition rate ([6]; ACTR2(h), 10 nM) was -9%. For the same compound, the Inhibition rate ([6]; ACTR2(h), 100 nM) was -11%, the Inhibition rate ([6]; ACTR2(h), 1000 nM) was -8% and the Inhibition rate ([6]; MAPK1(h), 10 nM) was -1%. For the same compound, the Inhibition rate ([6]; MAPK1(h), 100 nM) was 0%, the Inhibition rate ([6]; MAPK1(h), 1000 nM) was 7% and the Inhibition rate ([6]; PKCβII(h), 10 nM) was -1%. The Inhibition rate ([6]; PKCβII(h), 100 nM) was 4%, the Inhibition rate ([6]; PKCβII(h), 1000 nM) was 6% and the Inhibition rate ([6]; PKG1β(h), 10 nM) was 7%. The Inhibition rate ([6]; PKG1β(h), 100 nM) was 10% and the Inhibition rate ([6]; PKG1β(h), 1000 nM) was 5%.
